From ChEMBL document CHEMBL1201862, “PubChem BioAssay data set” (2004) come the findings set out here.

Test [1] deals with T1, RNA-binding protein pos-1 (Caenorhabditis elegans, UniProt G5EF15).
T1 sequence (G5EF15 whole entry): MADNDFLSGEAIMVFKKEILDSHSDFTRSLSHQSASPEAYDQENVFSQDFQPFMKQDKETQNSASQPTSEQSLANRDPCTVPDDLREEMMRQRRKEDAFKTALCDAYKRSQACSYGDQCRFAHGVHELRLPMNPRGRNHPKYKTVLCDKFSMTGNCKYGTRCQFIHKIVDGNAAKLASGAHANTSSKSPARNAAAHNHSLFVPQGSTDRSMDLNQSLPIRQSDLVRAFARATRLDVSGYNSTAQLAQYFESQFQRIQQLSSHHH
Briefly: disruptors of C. elegans POS-1 RNA interaction – biochemical, fluorescence polarization, dose response (AID 1964).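 Also: purified POS-1 fused to maltose binding protein made in E. coli; potency of compounds blocking POS-1 binding to fluorescent RNA.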

The next test concerns the target DNA topoisomerase (Yersinia pestis, UniProt A0A2S9PM60). Briefly: Yersinia topoisomerase I cleavage product accumulation – biochemical, cherry-pick, dose response (AID 588525).
In test [2] the target is T2, Zinc finger protein mex-5 (Caenorhabditis elegans, UniProt Q9XUB2).
T2 sequence (Q9XUB2 whole entry): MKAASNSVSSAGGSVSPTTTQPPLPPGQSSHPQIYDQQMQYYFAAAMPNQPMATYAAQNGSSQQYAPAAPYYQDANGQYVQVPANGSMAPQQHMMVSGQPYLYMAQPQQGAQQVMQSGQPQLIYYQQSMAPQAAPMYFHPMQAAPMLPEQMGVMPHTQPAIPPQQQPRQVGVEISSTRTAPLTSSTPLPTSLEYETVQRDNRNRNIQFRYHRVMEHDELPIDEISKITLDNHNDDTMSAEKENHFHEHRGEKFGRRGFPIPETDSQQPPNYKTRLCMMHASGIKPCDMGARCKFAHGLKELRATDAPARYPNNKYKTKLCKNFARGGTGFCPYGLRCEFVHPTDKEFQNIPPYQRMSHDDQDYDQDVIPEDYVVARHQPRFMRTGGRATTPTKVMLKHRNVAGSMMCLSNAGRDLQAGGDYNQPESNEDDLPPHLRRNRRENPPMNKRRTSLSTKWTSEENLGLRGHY
Put plainly: potency of MEX-5 RNA-binding blockers – biochemical, C. elegans, fluorescence polarization, dose response (AID 1960). (In general: Fluorescence polarisation rises when a labelled molecule tumbles more slowly, as on binding a larger partner.)

The target in another test is Genome polyprotein (dengue virus type 2, UniProt P29990). Put plainly: flavivirus cap methylation enzyme inhibition – biochemical, confirmation dose response, primary screen (AID 588689). The test is classed as functional.
Sequence of Genome polyprotein (P29990 2492-3391 limits assumed): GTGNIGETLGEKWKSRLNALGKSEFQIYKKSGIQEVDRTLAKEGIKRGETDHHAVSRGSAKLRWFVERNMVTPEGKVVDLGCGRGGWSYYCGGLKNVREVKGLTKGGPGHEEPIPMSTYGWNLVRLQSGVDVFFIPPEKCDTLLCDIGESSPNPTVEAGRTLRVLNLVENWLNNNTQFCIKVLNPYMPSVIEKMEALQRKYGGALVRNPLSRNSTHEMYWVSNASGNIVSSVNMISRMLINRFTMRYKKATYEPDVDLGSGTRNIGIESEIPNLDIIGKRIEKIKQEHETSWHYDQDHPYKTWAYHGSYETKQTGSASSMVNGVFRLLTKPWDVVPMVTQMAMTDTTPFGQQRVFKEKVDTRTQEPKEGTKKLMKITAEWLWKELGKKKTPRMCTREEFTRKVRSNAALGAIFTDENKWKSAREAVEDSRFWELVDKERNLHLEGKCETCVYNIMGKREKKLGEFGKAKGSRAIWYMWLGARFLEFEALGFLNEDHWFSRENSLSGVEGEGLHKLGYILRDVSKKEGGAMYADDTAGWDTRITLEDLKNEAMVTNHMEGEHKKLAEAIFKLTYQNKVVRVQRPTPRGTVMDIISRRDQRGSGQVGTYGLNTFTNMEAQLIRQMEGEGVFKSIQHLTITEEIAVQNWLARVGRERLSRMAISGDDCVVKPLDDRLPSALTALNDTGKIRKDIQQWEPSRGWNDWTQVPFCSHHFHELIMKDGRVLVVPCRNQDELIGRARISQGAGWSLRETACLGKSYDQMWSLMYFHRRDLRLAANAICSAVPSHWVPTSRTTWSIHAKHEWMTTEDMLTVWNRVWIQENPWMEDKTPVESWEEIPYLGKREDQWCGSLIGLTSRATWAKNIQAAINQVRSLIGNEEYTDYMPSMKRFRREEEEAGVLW
Test [3] is described as follows: NIH-3T3 fibroblast cytotoxicity, dose response, cytotoxicity control, cell-based, fluorescence, Alamar Blue, secondary assay (AID 2327).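 Also: NIH-3T3 mouse fibroblasts cultured with fluconazole at 8 µg/mL.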 The test is classed as functional.
Test [4] can be described thus: nonselective StAR promoter luciferase inhibitors – cell-based, luminescence, luciferase reporter, counter-screen for LRH-1 inverse agonist project, dose response (AID 651969). The test is classed as functional. For orientation: In a reporter assay the amount or activity of a reporter protein is the signal.
For test [5], the target named is SWI/SNF-related matrix-associated actin-dependent regulator of chromatin subfamily A member 2 (Homo sapiens, UniProt P51531). Briefly: Luminescence-based cell-based high throughput dose response assay to identify activators of the function of SWI/SNF related, matrix associated, actin dependent regulator of chromatin, subfamily a, member 2 (SMARCA2, BRM). The test is classed as functional.
Sequence of SWI/SNF-related matrix-associated actin-dependent regulator of chromatin subfamily A member 2 (P51531 whole entry): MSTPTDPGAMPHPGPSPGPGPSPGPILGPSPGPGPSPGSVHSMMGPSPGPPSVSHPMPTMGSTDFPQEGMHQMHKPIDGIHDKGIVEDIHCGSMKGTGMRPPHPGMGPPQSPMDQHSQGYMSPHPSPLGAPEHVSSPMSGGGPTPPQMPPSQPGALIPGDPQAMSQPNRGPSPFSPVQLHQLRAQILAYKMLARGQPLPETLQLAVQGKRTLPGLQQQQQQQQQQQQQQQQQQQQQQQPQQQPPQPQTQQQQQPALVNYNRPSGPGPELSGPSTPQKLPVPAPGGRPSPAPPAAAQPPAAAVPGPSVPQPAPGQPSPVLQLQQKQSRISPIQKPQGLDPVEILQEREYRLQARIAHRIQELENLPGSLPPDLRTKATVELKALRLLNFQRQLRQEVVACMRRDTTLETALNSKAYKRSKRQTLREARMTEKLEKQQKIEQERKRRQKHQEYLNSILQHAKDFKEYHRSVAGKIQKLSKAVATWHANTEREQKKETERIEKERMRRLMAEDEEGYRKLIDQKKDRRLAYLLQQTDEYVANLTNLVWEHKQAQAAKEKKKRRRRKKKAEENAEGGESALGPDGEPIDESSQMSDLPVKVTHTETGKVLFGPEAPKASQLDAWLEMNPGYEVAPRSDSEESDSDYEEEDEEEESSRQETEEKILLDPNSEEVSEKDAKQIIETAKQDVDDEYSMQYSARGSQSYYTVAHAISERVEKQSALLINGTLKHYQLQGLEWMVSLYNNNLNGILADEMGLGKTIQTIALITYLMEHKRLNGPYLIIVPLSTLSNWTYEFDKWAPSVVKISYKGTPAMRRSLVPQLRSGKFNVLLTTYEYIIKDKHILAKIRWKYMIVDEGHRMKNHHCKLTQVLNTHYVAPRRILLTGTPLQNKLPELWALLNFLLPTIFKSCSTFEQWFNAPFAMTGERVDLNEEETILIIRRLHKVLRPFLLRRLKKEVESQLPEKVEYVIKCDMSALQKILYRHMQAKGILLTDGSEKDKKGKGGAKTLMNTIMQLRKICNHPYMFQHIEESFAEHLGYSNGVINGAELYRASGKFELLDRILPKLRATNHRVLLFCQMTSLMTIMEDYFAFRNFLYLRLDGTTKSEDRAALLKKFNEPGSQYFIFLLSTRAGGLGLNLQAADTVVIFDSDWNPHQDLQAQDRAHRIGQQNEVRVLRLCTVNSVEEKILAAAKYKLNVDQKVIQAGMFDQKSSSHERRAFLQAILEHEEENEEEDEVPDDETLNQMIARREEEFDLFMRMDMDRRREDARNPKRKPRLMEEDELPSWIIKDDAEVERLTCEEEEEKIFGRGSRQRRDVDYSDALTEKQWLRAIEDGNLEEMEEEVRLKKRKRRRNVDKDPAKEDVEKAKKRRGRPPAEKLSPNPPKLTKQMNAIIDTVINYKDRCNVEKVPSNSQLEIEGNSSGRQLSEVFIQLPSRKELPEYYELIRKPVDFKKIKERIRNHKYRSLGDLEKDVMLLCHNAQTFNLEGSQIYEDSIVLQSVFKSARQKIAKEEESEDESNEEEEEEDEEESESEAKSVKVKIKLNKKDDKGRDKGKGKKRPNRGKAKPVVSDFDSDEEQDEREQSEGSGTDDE

A short description of test [6]: fluconazole-exposed Candida albicans growth modulators – fluorescence, retest, confirmation (AID 2467). The test is classed as functional, cell-based.
A further test has as its system Jurkat. Put plainly: SAR Analysis of small molecule inhibitors of T-cell specific antigen receptor-induced NF-kB activation in a Jurkat cell line using a luminescence assay - Set 2. [Related pubchem assays (depositor defined):AID435003, AID435012, AID465]. Conditions: Homo sapiens. The test is classed as functional, cell-based.
Test [7] has as its system HEK293. Put plainly: SAR Analysis of small molecule inhibitors of T-cell specific antigen receptor-induced NF-kB activation in a HEK-293T cell line using a luminescence assay - Set 2. [Related pubchem assays (depositor defined):AID435003, AID435012, AID489026]. The test is classed as functional, cell-based. To be noted: Homo sapiens.
In the next test the target is Paired box protein Pax-8 (Homo sapiens, UniProt Q06710). Put plainly: PAX8 transcriptional activity inhibition in RMG-I – RMG-I cells, luciferase, cherry-pick, dose response (AID 687027).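 Also: luciferase reporter driven by Pax8 target thyroperoxidase promoter measured by SteadyGlo luminescence.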 The test is classed as functional, cell-based.
Sequence of Paired box protein Pax-8 (Q06710 whole entry): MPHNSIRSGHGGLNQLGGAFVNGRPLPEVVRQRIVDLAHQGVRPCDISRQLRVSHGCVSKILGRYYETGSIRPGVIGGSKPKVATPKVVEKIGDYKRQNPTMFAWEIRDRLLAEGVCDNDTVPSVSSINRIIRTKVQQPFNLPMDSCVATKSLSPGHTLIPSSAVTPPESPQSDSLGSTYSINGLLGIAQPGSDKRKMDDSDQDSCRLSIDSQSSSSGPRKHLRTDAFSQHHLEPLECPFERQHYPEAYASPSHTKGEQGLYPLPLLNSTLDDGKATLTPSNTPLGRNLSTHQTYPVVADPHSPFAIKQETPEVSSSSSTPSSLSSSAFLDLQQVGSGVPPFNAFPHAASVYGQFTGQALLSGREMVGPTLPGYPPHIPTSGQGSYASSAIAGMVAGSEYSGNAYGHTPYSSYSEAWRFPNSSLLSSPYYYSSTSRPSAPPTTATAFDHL
The nature of test [8]: Counterscreen for activators of the function of SWI/SNF related, matrix associated, actin dependent regulator of chromatin, subfamily a, member 2 (SMARCA2, BRM): Luminescence-based cell-based high throughput dose response assay to identify non-selective compounds using the VP16 reporter assay. The test is classed as functional. In general terms: A counterscreen serves to expose hits that act by an unwanted route or on another target.

For test [9], the target named is Nuclear receptor subfamily 5 group A member 2 (Homo sapiens, UniProt O00482). The test is classed as functional, cell-based.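 Also: HEK293T cells transfected with LRH-1 and a StAR promoter luciferase reporter; potency for inhibitors that lower LRH-1 driven reporter light.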
Sequence of Nuclear receptor subfamily 5 group A member 2 (O00482 whole entry): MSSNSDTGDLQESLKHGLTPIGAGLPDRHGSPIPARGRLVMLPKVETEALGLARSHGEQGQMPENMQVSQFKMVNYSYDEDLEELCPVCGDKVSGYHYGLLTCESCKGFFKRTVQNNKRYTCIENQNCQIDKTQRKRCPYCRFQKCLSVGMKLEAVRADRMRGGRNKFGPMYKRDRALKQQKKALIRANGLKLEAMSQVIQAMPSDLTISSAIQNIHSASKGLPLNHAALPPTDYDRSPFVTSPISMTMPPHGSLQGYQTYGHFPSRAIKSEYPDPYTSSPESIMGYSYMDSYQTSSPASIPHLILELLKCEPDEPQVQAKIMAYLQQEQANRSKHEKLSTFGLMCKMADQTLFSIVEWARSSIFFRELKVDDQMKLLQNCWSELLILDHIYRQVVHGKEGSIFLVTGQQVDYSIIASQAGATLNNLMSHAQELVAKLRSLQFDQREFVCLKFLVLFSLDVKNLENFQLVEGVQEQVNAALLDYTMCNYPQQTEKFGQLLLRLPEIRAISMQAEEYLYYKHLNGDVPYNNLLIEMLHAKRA
The target in the next test is Steroidogenic factor 1 (Homo sapiens, UniProt Q13285). Briefly: Counterscreen for inverse agonists of the liver receptor homolog-1 (LRH-1; NR5A2): Luminescence-based cell-based high throughput dose response assay to identify inverse agonists of the Steroidogenic Factor 1 Nuclear Receptor (SF1; NR5A1). The test is classed as functional.
For test [10], the system named is HEK293. Put plainly: HEK293T cell viability loss, resazurin readout – resazurin fluorescence, cytotoxicity control for NF-kB activator project, SAR follow-up (AID 493251). The test is classed as functional, cell-based. Conditions: Homo sapiens.
The target in test [11] is Sphingosine 1-phosphate receptor 1 (Homo sapiens, UniProt P21453). The test is classed as functional.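 Also: Tango beta-arrestin reporter U2OS cells stimulated with S1P near its EC80; inhibitor potency meaning antagonism of receptor activation by the natural agonist.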
Sequence of Sphingosine 1-phosphate receptor 1 (P21453 whole entry): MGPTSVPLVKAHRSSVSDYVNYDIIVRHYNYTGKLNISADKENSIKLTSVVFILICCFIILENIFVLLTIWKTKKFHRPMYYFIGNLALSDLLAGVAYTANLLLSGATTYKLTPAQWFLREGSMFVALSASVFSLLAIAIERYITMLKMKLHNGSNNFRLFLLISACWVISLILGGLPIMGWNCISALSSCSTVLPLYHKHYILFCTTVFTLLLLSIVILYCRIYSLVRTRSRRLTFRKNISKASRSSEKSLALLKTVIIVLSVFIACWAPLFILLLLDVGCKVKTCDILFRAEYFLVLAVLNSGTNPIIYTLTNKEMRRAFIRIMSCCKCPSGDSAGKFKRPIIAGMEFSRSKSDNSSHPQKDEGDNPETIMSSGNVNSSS
Test [12] deals with T3, Microphthalmia-associated transcription factor (Homo sapiens, UniProt O75030).
T3 sequence (O75030 whole entry): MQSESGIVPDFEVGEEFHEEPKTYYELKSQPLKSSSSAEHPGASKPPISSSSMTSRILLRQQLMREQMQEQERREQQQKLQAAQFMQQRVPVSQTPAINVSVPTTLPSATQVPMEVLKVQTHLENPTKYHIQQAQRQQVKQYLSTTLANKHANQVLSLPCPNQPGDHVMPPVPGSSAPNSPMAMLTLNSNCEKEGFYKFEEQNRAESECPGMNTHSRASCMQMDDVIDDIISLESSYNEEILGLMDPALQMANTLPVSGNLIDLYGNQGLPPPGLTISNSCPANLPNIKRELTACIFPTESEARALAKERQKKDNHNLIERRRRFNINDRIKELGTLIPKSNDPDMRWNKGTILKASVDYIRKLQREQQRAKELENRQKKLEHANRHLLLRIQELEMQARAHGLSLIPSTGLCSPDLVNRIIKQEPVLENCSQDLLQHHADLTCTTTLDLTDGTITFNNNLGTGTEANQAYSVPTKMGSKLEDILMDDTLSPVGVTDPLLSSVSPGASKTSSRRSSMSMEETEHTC
Put plainly: reducers of TRPM1 reporter luminescence, concentration series – cell-based, SK-MEL-5, cherry-picked, set 3, MITF inhibitor project, dose response (AID 493073).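 Also: SK-MEL-5 melanoma cells with luciferase driven by the MITF target TRPM1 promoter.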 The test is classed as functional.

Test [13] concerns the target T4, Sphingosine 1-phosphate receptor 4 (Homo sapiens, UniProt O95977).
T4 sequence (O95977 whole entry): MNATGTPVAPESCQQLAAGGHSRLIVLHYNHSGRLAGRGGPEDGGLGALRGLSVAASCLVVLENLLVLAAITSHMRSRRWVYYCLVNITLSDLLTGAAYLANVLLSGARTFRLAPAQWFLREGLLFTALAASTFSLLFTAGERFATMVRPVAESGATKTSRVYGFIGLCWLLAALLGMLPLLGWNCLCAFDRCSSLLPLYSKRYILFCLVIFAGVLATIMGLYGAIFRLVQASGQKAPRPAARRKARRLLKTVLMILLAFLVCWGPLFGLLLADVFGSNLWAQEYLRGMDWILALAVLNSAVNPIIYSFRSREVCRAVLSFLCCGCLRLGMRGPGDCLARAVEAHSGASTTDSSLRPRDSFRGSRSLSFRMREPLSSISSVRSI
Put plainly: Fluorescence dose response cell-based high throughput screening assay for antagonists of the Sphingosine 1-Phosphate Receptor 4 (S1P4). [Related pubchem assays: 1524 (Confirmation in triplicates.), 1510 (Primary screen.)]. The test is classed as functional.

Active and inactive are the calls of the source. A value given as a limit tells only on which side of the number the result lay.

Sequence of DNA topoisomerase (A0A2S9PM60 whole entry): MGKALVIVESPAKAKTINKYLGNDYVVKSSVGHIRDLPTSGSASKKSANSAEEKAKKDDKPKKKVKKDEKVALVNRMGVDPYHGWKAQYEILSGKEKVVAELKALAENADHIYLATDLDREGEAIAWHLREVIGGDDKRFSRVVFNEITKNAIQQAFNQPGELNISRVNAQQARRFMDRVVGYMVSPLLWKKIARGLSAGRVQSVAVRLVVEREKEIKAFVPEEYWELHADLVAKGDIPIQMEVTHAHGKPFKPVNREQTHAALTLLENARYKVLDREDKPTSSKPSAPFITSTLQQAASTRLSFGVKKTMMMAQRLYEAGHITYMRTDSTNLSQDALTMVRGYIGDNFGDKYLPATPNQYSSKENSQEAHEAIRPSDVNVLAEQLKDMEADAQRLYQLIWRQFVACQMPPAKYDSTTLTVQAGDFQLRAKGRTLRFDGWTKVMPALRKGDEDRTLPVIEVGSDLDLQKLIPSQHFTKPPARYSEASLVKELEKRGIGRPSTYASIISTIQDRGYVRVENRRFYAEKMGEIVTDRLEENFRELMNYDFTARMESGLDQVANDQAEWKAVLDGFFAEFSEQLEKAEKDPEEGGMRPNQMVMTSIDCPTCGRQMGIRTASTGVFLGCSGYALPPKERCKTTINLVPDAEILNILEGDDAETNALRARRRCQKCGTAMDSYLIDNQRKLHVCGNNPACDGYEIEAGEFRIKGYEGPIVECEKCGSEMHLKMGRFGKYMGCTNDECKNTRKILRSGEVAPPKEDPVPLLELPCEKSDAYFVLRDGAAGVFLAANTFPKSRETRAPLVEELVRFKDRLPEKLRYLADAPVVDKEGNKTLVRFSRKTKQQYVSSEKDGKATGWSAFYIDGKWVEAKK

The term EC50 denotes the concentration giving half of the maximal effect. By AC50 is commonly meant the concentration at which the activity in the assay is half-maximal. In general, IC50 refers to the concentration that gives 50% inhibition. For the molecule `C=CCOc1cccc(C2C(C(=O)c3cc4ccccc4o3)=C(O)C(=O)N2c2cc(C)on2)c1` (stereo not drawn), the figures for the 50% effective concentration (EC50) in test [1] and in [2] were > 300 µM (not active) and 80.5 µM (active), respectively. At DNA topoisomerase, the AC50 was 7.35 µM (active). Moreover, the IC50 at Genome polyprotein is 48.6 µM (active).

Regarding `Cc1cc(NC(=O)c2ccc([N+](=O)[O-])o2)ccc1NC(=O)c1ccco1`, the EC50 in test [3] was 4.78 µM (inconclusive); in test [5], > 91.2 µM (inactive); in test [6], > 38 µM (not active); in test [8] it was > 91.2 µM (inactive). The IC50 in [4] was 35.9 µM (inactive); in the test with Jurkat, 31.1 µM (inactive); in the test on HEK293 [7], 27 µM (inactive); in test [9] it was 35.9 µM (inactive); on Steroidogenic factor 1 it was 766 nM (active); in the test on HEK293 [10] it was 42.4 µM (inactive). For the same molecule, the results for the concentration for half-maximal inhibition (IC50) in test [11] and in test [13] were 11.5 µM (not active) and 1.87 µM (active), respectively. Moreover, the half-maximal activity concentration (AC50) on Paired box protein Pax-8 is 5.2 µM (active); in test [12], 7.8 µM (active).
